{
  "source": "patent US20060052303A1",
  "about": "“Use of thyrotropin for regeneration of bone” (priority 2004, published 2006)",
  "key": {"thyroid": {"test_system": "thyroid", "settings": "in rats; cited from earlier work"}, "[1]": {"test_system": "ovariectomized (OVX) rats", "experiment": "Bone restoration study in ovariectomized rats with native rat TSH (Example 3B)", "assay_type": "in vivo", "protocol": "To confirm that TSH has an anabolic effect on bone, a restoration study was performed, Native rat TSH was administered seven months after ovariectomy essentially following a similar dose and dosing regimen as described in Example 2B except that administration of TSH was extended until 16 weeks.\nTwelve animals were sham operated, while forty eight were ovariectomized (OVX) bilaterally by abdominal approach. Treatment started six weeks after ovariectomy as follows: (1) SHAM (n=12); (2) OVX+vehicle (n=12); (3) OVX+0.01 μg (n=12); (3) OVX+0.1 μg (n=12); and (4) OVX+0.3 μg (n=12).\nBone mineral density monitoring in vivo and ex vivo and serum and urine biochemical analyses were performed essentially as described in Example 3A. Eight-month old rats were ovariectomized and then left for seven months to lose bone. Therapy was then started and continued for 16 weeks and BMD was measured both in vivo and ex vivo, and microCT and serum biochemistry were performed."}, "OVX rats": {"test_system": "OVX rats", "experiment": "Treatment of osteopenia in OVX rats using rat TSH (Example 2B)", "assay_type": "in vivo", "protocol": "A similar study following essentially the same dosing regimens. was performed using the native rat TSH in OVX rats. […] Rat TSH with a specific activity of approximately 90 lU/mg was obtained from the Scripps Institute. Bone mineral monitoring in vivo and serum and urine biochemical analyses were performed essentially as described in Example 3A.\nBiochemical assays—Urinary levels of deoxypyridinoline cross-links and creatinine (DPD and Cr, respectively) are analyzed in duplicate using rat ELISA kits from Metrobiosystems (Mountain View, Calif., USA). Serum levels of osteocalcin (OSC) are measured using a rat sandwich ELISA kit from Biomedical Technologies (Stroughton, Mass., USA). The manufacturer's protocols are followed, and all samples are assayed in duplicate. A standard curve is generated from each kit, and the absolute concentrations are extrapolated from the standard curve. […]\nThe complete secondary spongiosa of the proximal tibia is evaluated, thereby completely avoiding sampling errors incurred by random deviations of a single section. […] From the binarized images, structural indices are assessed with three-dimensional (3D) techniques for trabecular bone.\nRelative bone volume, trabecular number, thickness, and separation are calculated by measuring 3D distances directly in the trabecular network and taking the mean over all voxels.\nBone surface is calculated from a tetrahedron meshing technique. By displacing the surface of the structure in infinitesimal amounts, the structure model index (SMI) is calculated. The SMI quantifies the plate versus rod characteristics of trabecular bone, in which an SMI of 0 pertains to a purely plate-shaped bone, an SMI of 3 designates a purely rod-like bone, and values between stand for mixtures of plates and rods. Furthermore, connectivity density based on the Euler number is determined. In addition, a 3D cubical voxel model of bone is built, and cortical thickness is measured."}, "[2]": {"settings": "obtained from the Scripps Institute; cited from earlier work"}, "[3]": {"settings": "in particular with 0.1 and 0.3 μg/rat"}},
  "data": [
    {"substance": "rat TSH: native rat TSH obtained from the Scripps Institute", "values": [
      {"measurement": "effectiveness in stimulating thyroid hormone production compared to human recombinant TSH", "setting": "thyroid", "result": "10-20 times"},
      {"measurement": "BMD values of hind limbs in vivo", "setting": "[1]; 0.01 μg/rat, 12 and 16 weeks time points", "result": "did not induce a measurable effect"},
      {"measurement": "cortical thickness above ovariectomized rats", "setting": "[1]; 0.1 μg/rat", "result": 14, "unit": "%"},
      {"measurement": "cortical thickness above sham animal values", "setting": "[1]; 0.1 μg/rat", "result": "~10", "unit": "%"},
      {"measurement": "ex vivo proximal femur BMD (DEXA)", "setting": "[1]; 0.3 μg", "result": "increased"},
      {"measurement": "cortical thickness (microCT)", "setting": "[1]; 0.1 and 0.3 μg/rat", "result": "increased"},
      {"measurement": "BMD values of hind limbs in vivo", "setting": "[1]; 0.1 and 0.3 μg/rat, FIG. 14", "result": "increased"},
      {"measurement": "bone volume of long bones and the spine (microCT, trabecular bone ex vivo)", "setting": "[1]; all three doses tested (0.01, 0.1, 0.3 μg)", "result": "increased"},
      {"measurement": "ex vivo lumbar spine BMD", "setting": "[1]; [3]", "result": "increased"},
      {"measurement": "ex vivo tibia BMD", "setting": "[1]; [3]", "result": "increased"},
      {"measurement": "trabecular number (microCT)", "setting": "[1]; lesser extent than trabecular thickness", "result": "increased"},
      {"measurement": "T3 and T4 serum levels", "setting": "[1]; rat, in vivo", "result": "no measurable increase"},
      {"measurement": "ex vivo distal femur BMD (DEXA)", "setting": "[1]; rat, in vivo", "result": "slightly increased"},
      {"measurement": "ex vivo total femur BMD (DEXA)", "setting": "[1]; rat, in vivo", "result": "slightly increased"},
      {"measurement": "trabecular thickness (microCT)", "setting": "[1]; vs sham and ovariectomized rats", "result": "significantly increased"},
      {"measurement": "bone loss associated with ovariectomy", "setting": "OVX rats; 0.01, 0.1, 0.3 μg per rat, in vivo total body, hind limbs, lumbar BMD, ex vivo proximal femur and tibia BMD, microCT", "result": "effective in preventing the bone loss"},
      {"measurement": "serum collagen C-telopeptide", "setting": "OVX rats; indicates anti-resorptive activity", "result": "reduction"},
      {"measurement": "effective concentration in the rat relative to human TSH", "setting": "OVX rats; rat, in vivo", "result": "effective in the rat at lower concentration than human TSH"},
      {"measurement": "specific activity", "setting": "[2]", "result": "approximately 90 lU/mg"}
    ]}
  ]
}
